Laboratory results: ChEMBL document CHEMBL5108015, “4,6-Disubstituted-1H-Indazole-4-Amine derivatives with immune-chemotherapy effect and in vivo antitumor activity” (Eur J Med Chem, 2022)

Experiments:
[1] = molecular target: T1, Tryptophan 2,3-dioxygenase (Homo sapiens, UniProt P48775); experiment: (§1) Inhibition of N-terminal hexa-histidine tagged human TDO (19 to 388 residues) expressed in Escherichia coli Transetta (DE3) using L-tryptophan as substrate at 100 uM preincubated with enzyme for 10 mins followed by substrate addition and measured after 30 to 60 mins by microplate reader analysis relative to control; conditions: time 40-70 min
Target sequence in this assay (P48775 whole entry, looked up, the tested form may be a part): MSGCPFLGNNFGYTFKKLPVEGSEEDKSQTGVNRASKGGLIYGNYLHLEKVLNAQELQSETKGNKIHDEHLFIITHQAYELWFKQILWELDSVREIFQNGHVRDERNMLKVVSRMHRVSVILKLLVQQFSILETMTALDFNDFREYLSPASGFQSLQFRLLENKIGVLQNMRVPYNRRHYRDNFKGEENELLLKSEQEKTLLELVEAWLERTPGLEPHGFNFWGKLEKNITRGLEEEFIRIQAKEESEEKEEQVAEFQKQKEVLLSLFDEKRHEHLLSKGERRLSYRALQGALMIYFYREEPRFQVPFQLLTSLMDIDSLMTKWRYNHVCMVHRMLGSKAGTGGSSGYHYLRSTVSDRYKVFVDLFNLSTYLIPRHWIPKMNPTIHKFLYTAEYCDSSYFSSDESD

[2] = molecular target: T1, Tryptophan 2,3-dioxygenase; experiment: as §1, with “10” for “100”; conditions: time 40-70 min
Target sequence in this assay (P48775 whole entry, looked up, the tested form may be a part): as above

[3] = molecular target: T1, Tryptophan 2,3-dioxygenase; experiment: Inhibition of N-terminal hexa-histidine tagged human TDO (19 to 388 residues) expressed in Escherichia coli Transetta (DE3) using L-tryptophan as substrate preincubated with enzyme for 10 mins followed by substrate addition and measured after 30 to 60 mins by microplate reader analysis
Target sequence in this assay (P48775 whole entry, the tested form may be a part): as the sequence (P48775 whole entry, looked up, the tested form may be a part) above

[4] = molecular target: T2, Indoleamine 2,3-dioxygenase 1 (Homo sapiens, UniProt P14902); experiment: as §1, with “IDO1 (12” for “TDO (19”, “403” for “388”; conditions: time 40-70 min
Target sequence in this assay (P14902 whole entry, looked up): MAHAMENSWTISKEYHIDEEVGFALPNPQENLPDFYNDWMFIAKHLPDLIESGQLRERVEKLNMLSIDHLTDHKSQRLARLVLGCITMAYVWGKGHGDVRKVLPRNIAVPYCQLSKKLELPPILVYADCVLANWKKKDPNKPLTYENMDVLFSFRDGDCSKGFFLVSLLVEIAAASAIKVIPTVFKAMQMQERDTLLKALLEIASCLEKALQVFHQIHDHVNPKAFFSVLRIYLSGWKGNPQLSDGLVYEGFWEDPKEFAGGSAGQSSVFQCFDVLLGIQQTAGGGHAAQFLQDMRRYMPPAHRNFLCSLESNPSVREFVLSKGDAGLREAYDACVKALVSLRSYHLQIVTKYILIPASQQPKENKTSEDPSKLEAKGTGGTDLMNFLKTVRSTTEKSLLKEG

[5] = molecular target: T2, Indoleamine 2,3-dioxygenase 1; experiment: as §1, with “IDO1 (12” for “TDO (19”, “403” for “388”, “10” for “100”; conditions: time 40-70 min
Target sequence in this assay (P14902 whole entry, looked up): as above

[6] = molecular target: T2, Indoleamine 2,3-dioxygenase 1; experiment: Inhibition of N-terminal hexa-histidine tagged human IDO1 (12 to 403 residues) expressed in Escherichia coli Transetta (DE3) using L-tryptophan as substrate preincubated with enzyme for 10 mins followed by substrate addition and measured after 30 to 60 mins by microplate reader analysis
Target sequence in this assay (P14902 whole entry): as the sequence (P14902 whole entry, looked up) above

[7] = test system: HepG2; experiment: Cytotoxicity against human HepG2 cells assessed as inhibition of cell growth incubated for 24 hrs by MTT assay; type: functional, cell-based; conditions: HepG2, 24 h
[8] = Cytotoxicity against […] cells assessed as inhibition of cell growth incubated for 24 hrs by MTT assay; type: functional, cell-based; conditions: Mus musculus, Hepa1-6, 24 h
[9] = test system: H22; experiment: Cytotoxicity against mouse H22 cells assessed as inhibition of cell growth incubated for 24 hrs by MTT assay; type: functional, cell-based; conditions: H22, 24 h
[10] = test system: B16; experiment: Cytotoxicity against mouse B16 cells assessed as inhibition of cell growth incubated for 24 hrs by MTT assay; type: functional, cell-based; conditions: B16, 24 h
[11] = test system: MOLM-13; experiment: Cytotoxicity against human MOLM-13 cells assessed as inhibition of cell growth incubated for 24 hrs by MTT assay; type: functional, cell-based; conditions: MOLM-13, 24 h
[12] = test system: Jurkat; experiment: Cytotoxicity against human Jurkat cells assessed as inhibition of cell growth incubated for 24 hrs by MTT assay; type: functional, cell-based

Row | SMILES | inhibition [1] [%] | inhibition [2] [%] | IC50 [3] [µM] | inhibition [4] [%] | inhibition [5] [%] | IC50 [6] [µM] | IC50 [7] [µM] | IC50 [8] [µM] | IC50 [9] [µM] | IC50 [10] [µM] | IC50 [11] [µM] | IC50 [12] [µM]
1 | O=[N+]([O-])c1ccc2[nH]c(CNc3cc(C(F)(F)F)cc4[nH]ncc34)cc2c1 | 69 | 54 | > 100 | 38 | 22 | > 100 | – | – | – | – | – | –
2 | OC1CCCC(Nc2cccc(CNc3cc(C(F)(F)F)cc4[nH]ncc34)c2)C1 (stereo unspecified) | 23 | – | > 100 | 2 | – | > 100 | – | – | – | – | – | –
3 | O=C1NCc2c(NCc3ccccc3[N+](=O)[O-])cccc21 | 29 | 23 | > 100 | 9 | 8 | > 100 | – | – | – | – | – | –
4 | CC(C)n1ncc2c(NCc3ccccc3[N+](=O)[O-])cc(C(F)(F)F)cc21 | 32 | 35 | > 100 | 13 | 7 | > 100 | – | – | – | – | – | –
5 | FC(F)(F)c1cc(NCc2cccc3sccc23)c2cn[nH]c2c1 | 5 | – | > 100 | 3 | – | > 100 | – | – | – | – | – | –
6 | FC(F)(F)c1cccc(CNc2cc(C(F)(F)F)cc3[nH]ncc23)c1 | 74 | 40 | 12.2 | 49 | 25 | > 100 | – | – | – | – | – | –
7 | FC(F)(F)c1cc(NCc2cccc(Br)c2)c2cn[nH]c2c1 | 84 | 67 | 19.1 | 51 | 23 | > 100 | – | – | – | – | – | –
8 | CS(=O)(=O)c1ccc(CNc2cc(C(F)(F)F)cc3[nH]ncc23)c([N+](=O)O)c1 | 98 | 96 | 0.79 | 93 | 63 | 58 | > 20 | > 20 | > 20 | > 20 | > 20 | > 20
9 | O=C(O)CNc1cccc(CNc2cc(C(F)(F)F)cc3[nH]ncc23)c1 | 65 | – | > 100 | 8 | – | > 100 | – | – | – | – | – | –
10 | Nc1cccc(CNc2cc(C(F)(F)F)cc3[nH]ncc23)c1 | 89 | 68 | 2.51 | 55 | 24 | > 100 | – | – | – | – | – | –
11 | N#Cc1cc(NCc2ccccc2[N+](=O)[O-])c2cn[nH]c2c1 | 41 | 22 | > 100 | 17 | 7 | > 100 | – | – | – | – | – | –
12 | FC(F)(F)c1cc(NC[C@H]2CCCN2)c2cn[nH]c2c1 | 84 | 55 | 6.09 | 83 | 34 | 9.58 | 16.2 | > 20 | 19.7 | > 20 | > 20 | > 20
13 | FC(F)(F)c1cc(NC[C@H]2CCCCN2)c2cn[nH]c2c1 | 90 | 69 | 0.46 | 69 | 19 | 24 | – | – | – | – | – | –
14 | O=[N+](O)c1c(Cl)cccc1CNc1cc(C(F)(F)F)cc2[nH]ncc12 | 94 | 96 | 0.17 | 69 | 45 | 60 | > 20 | > 20 | > 20 | > 20 | 7.69 | > 20
15 | FC(F)(F)c1cc(NC[C@@H]2CCCCN2)c2cn[nH]c2c1 | 88 | 64 | 8.05 | 81 | 32 | 18.7 | 19.9 | > 20 | 21.7 | > 20 | > 20 | > 20
16 | O=C(O)c1cccc(CNc2cc(C(F)(F)F)cc3[nH]ncc23)c1 | 94 | 81 | 1.69 | 17 | 11 | > 100 | – | – | – | – | – | –
17 | O=[N+]([O-])c1ccccc1CNc1cc(Br)cc2cn[nH]c12 | 48 | 35 | > 100 | 9 | 4 | > 100 | – | – | – | – | – | –

Row | SMILES | inhibition [1] [%] | inhibition [2] [%] | IC50 [3] [µM] | inhibition [4] [%] | inhibition [5] [%] | IC50 [6] [µM] | IC50 [7] [µM] | IC50 [8] [µM] | IC50 [9] [µM] | IC50 [10] [µM] | IC50 [11] [µM] | IC50 [12] [µM]
18 | O=[N+]([O-])c1cc(Br)c(F)cc1CNc1cc(C(F)(F)F)cc2[nH]ncc12 | 88 | 85 | 1.46 | 64 | 31 | > 100 | 1.96 | 15 | 1.85 | 13.8 | 4.27 | 2.82
19 | O=[N+]([O-])c1ccc(CNc2cc(Br)cc3[nH]ncc23)cc1 | 93 | 87 | 2.23 | 87 | 63 | 6.97 | > 20 | > 20 | > 20 | > 20 | > 20 | > 20
20 | Oc1ccc(CNc2cc(C(F)(F)F)cc3[nH]ncc23)c(Cl)c1 | 97 | 92 | 2.68 | 95 | 83 | 6.02 | – | – | – | – | – | –
21 | O=[N+]([O-])c1ccccc1CNc1cccc2[nH]ncc12 | 87 | 45 | 17 | 65 | 25 | – | – | – | – | – | – | –
22 | NCCn1ncc2c(NCc3ccccc3[N+](=O)[O-])cc(C(F)(F)F)cc21 | 29 | 25 | > 100 | 30 | 9 | > 100 | – | – | – | – | – | –
23 | O=[N+]([O-])c1cccc(CNc2cc(C(F)(F)F)cc3[nH]ncc23)c1 | 82 | 60 | 5.17 | 69 | 45 | > 100 | – | – | – | – | – | –
24 | O=[N+]([O-])c1cccc(CNc2cc(Br)cc3[nH]ncc23)c1 | 97 | 91 | 1.6 | 95 | 72 | 7.95 | 23.6 | > 20 | > 20 | > 20 | > 20 | > 20
25 | O=[N+]([O-])c1cc(Cl)ccc1CNc1cc(C(F)(F)F)cc2[nH]ncc12 | 93 | 90 | 1.7 | 77 | 50 | 18 | 5.82 | > 20 | 10.3 | > 20 | 4.13 | 8.04
26 | CNC(=O)c1cccc(CNc2cc(C(F)(F)F)cc3[nH]ncc23)c1 | 91 | 71 | 4.87 | 46 | 33 | > 100 | – | – | – | – | – | –
27 | COc1cc(CNc2cc(Br)cc3[nH]ncc23)c([N+](=O)[O-])cc1OC | 95 | 87 | 1.04 | 79 | 48 | 18.5 | 2.97 | 15.2 | 6.11 | > 20 | > 20 | > 20
28 | O=[N+]([O-])c1ccc(CNc2cc(C(F)(F)F)cc3[nH]ncc23)cc1 | 64 | 47 | > 100 | 61 | 52 | 61 | – | – | – | – | – | –
29 | FC(F)(F)c1cc(NCC2CNC2)c2cn[nH]c2c1 | 49 | 5 | > 100 | 22 | 10 | > 100 | – | – | – | – | – | –
30 | O=C1NC(=O)c2c(NCc3ccccc3[N+](=O)[O-])cccc21 | 25 | 17 | > 100 | 4 | 11 | > 100 | – | – | – | – | – | –
31 | O=[N+]([O-])c1ccccc1CNc1cc(Br)cc2[nH]ncc12 | 64 | 52 | 38.9 | 83 | 67 | 8.04 | – | – | – | – | – | –
32 | Oc1ccc(CNc2cc(C(F)(F)F)cc3[nH]ncc23)cc1 | 91 | 75 | 2.55 | 81 | 37 | 36.7 | – | – | – | – | – | –
33 | O=[N+]([O-])c1cc(OCc2ccccc2)ccc1CNc1cc(C(F)(F)F)cc2[nH]ncc12 | 55 | 49 | 97 | 20 | 10 | > 100 | – | – | – | – | – | –
34 | COC(=O)c1cc(NCc2ccccc2[N+](=O)[O-])c2cn[nH]c2c1 | 20 | 16 | > 100 | 47 | 11 | > 100 | – | – | – | – | – | –
